Data on 3 molecules can be found in EP0226973A2, “4-Bis(2'-hydroxyethyl)amino-1-(3'-hydroxypropyl)amino-2-nitro-benzene, process for its preparation and means for dyeing hair” (Wella Aktiengesellschaft, priority 1985, dated 1987).

In brackets after ≈: the same amount, converted by molar mass. Like-named read-outs stand apart in the source and are kept apart here. A value given as a limit tells only on which side of the number the result lay.

Series [1] can be described thus: Solubility in water. It is filed as physicochemical. To be noted: read-out: Löslichkeit in Wasser.
Series [2] is described as follows: Ames mutagenicity test. The format is cell-based. To be noted: Mutagenitätstest nach Ames. (The Ames test uses bacterial strains that need an amino acid and regain growth without it when mutated back.)
For series [3], the system named is Human-Lymphozyten. Kind of series: Human lymphocyte mutagenicity test. The settings on record: Human-Lymphozytentest. The format is cell-based.
Series [4] is described as follows: Toxicological properties (general statement).

Consider `O=[N+]([O-])c1cc(N(CCO)CCO)ccc1NCCCO` [Farbstoff (I), 4-Bis(2′-hydroxyethyl)amino-l-(3′-hydroxypropyl)amino-2-nitro-benzol], for which the solubility in series [1] is about 20000 µg/mL (≈ 66.8 mM). Further, the “mutagene Wirkung” value in series [2] and in series [3] was “keine mutagene Wirkung” in each case.
Regarding `CCNc1ccc(N(CCO)CCO)cc1[N+](=O)[O-]` [Farbstoff (III), 4-Bis(2′-hydroxyethyl)amino-l-ethylamino-2-nitro-benzol], in series [1] (ohne Zusatz von Lösungsvermittlern), the solubility was under 1500 µg/mL.
Consider `CNc1ccc(N(CCO)CCO)cc1[N+](=O)[O-]` [Farbstoff (V), 4-Bis(2′-hydroxyethyl)amino-l-methylamino-2-nitro-benzols], for which the solubility in series [1] is about 5000 µg/mL (≈ 19.6 mM). Moreover, the “mutagene Wirkung” value in series [2] and in series [3] was “im Gegensatz zu Farbstoff (V)” in each case. Further, the “toxikologische Eigenschaften” value in series [4] is listed as “sehr unbefriedigend”.
